Converted amounts (≈) assume the structure as drawn. Like-named read-outs stand apart in the source and are kept apart here. Marks after values point to notes of the source that are not given here.
System: A. baumannii
Experiment: MIC, broth microdilution in CAMHB supplemented with human serum, read at 100% growth inhibition
Type: cell-based, Acinetobacter baumannii
Conditions: for MIC: read-out: MIC
Experimental: MIC determinations were performed using the broth microdilution method and in line with CLSI guidelines M07 and M100 (refs. [37],[38]). Bacterial inocula were prepared by diluting a 0.5 McFarland suspension in CAMHB or lysogeny broth (LB) specifically for A. baylyi isolates. […] MIC values of all of the tested antibiotics were read as the lowest compound concentration inhibiting bacterial growth by naked eye or beyond which the OD600 ceased to decrease.

Q: What does the source list for `CN1C(=O)[C@H](CCCCN)NC(=O)[C@H](CCCN)NCc2cccnc2Sc2cccc(-c3ccc(C(=O)O)cc3)c2CNC(=O)[C@@H]1Cc1c[nH]c2ccccc12` [zosurabalpin]?
A: MIC (Acinetobacter baumannii, isolate 1729042, 20% HS): 2 µg/mL (≈ 2.53 µM); MIC (Acinetobacter baumannii, isolate 1729043, 20% HS): 1 µg/mL (≈ 1.26 µM); MIC (Acinetobacter baumannii, isolate 1729044, 20% HS): 1 µg/mL (≈ 1.26 µM); MIC (Acinetobacter baumannii, isolate 1729049, 20% HS): 2 µg/mL (≈ 2.53 µM); MIC (Acinetobacter baumannii, isolate 1729050, 20% HS): 2 µg/mL (≈ 2.53 µM); MIC (Acinetobacter baumannii, isolate 1729052, 20% HS): 1 µg/mL (≈ 1.26 µM); MIC (Acinetobacter baumannii, isolate 1729102, 20% HS): 4 µg/mL (≈ 5.06 µM); MIC (Acinetobacter baumannii, isolate 1729123, 20% HS): 0.5 µg/mL (≈ 0.632 µM); MIC (Acinetobacter baumannii, isolate 1729351, 20% HS): 0.5 µg/mL (≈ 0.632 µM); MIC (Acinetobacter baumannii, isolate 1729352, 20% HS): 0.25 µg/mL (≈ 0.316 µM); MIC (Acinetobacter baumannii, isolate 1729353, 20% HS): 0.25 µg/mL (≈ 0.316 µM); MIC (Acinetobacter baumannii, isolate 1729358, 20% HS): 0.25 µg/mL (≈ 0.316 µM); MIC (Acinetobacter baumannii, isolate 1729362, 20% HS): 1 µg/mL (≈ 1.26 µM); MIC (Acinetobacter baumannii, isolate 1729379, 20% HS): 1 µg/mL (≈ 1.26 µM); MIC (Acinetobacter baumannii, isolate 1864609, 20% HS): 0.06 µg/mL (≈ 0.0759 µM); MIC (Acinetobacter baumannii, isolate 1864833, 20% HS): 0.5 µg/mL (≈ 0.632 µM); MIC (Acinetobacter baumannii, isolate 1865057, 20% HS): 0.25 µg/mL (≈ 0.316 µM); MIC (Acinetobacter baumannii, isolate 1865083, 20% HS): 0.5 µg/mL (≈ 0.632 µM); MIC (Acinetobacter baumannii, isolate 1865084, 20% HS): 0.5 µg/mL (≈ 0.632 µM); MIC (Acinetobacter baumannii, isolate 1865085, 20% HS): 0.5 µg/mL (≈ 0.632 µM); MIC (Acinetobacter baumannii, isolate 1865086, 20% HS): 0.5 µg/mL (≈ 0.632 µM); MIC (Acinetobacter baumannii, isolate 1865266, 20% HS): 1 µg/mL (≈ 1.26 µM); MIC (Acinetobacter baumannii, isolate 1865269, 20% HS): 0.25 µg/mL (≈ 0.316 µM); MIC (Acinetobacter baumannii, isolate 1865273, 20% HS): 0.06 µg/mL (≈ 0.0759 µM); MIC (Acinetobacter baumannii, isolate 1865274, 20% HS): 0.25 µg/mL (≈ 0.316 µM); MIC (Acinetobacter baumannii, isolate 1865386, 20% HS): 0.125 µg/mL (≈ 0.158 µM); MIC (Acinetobacter baumannii, isolate 1865387, 20% HS): 0.125 µg/mL (≈ 0.158 µM); MIC (Acinetobacter baumannii, isolate 1865494, 20% HS): 0.06 µg/mL (≈ 0.0759 µM); MIC (Acinetobacter baumannii, isolate 1865714, 20% HS): 0.25 µg/mL (≈ 0.316 µM); MIC (Acinetobacter baumannii, isolate 1866281, 20% HS): 0.125 µg/mL (≈ 0.158 µM); MIC (Acinetobacter baumannii, isolate 1866282, 20% HS): 0.06 µg/mL (≈ 0.0759 µM); MIC (Acinetobacter baumannii, isolate 1866283, 20% HS): 0.03 µg/mL (≈ 0.0379 µM); MIC (Acinetobacter baumannii, isolate 1866370, 20% HS): 0.25 µg/mL (≈ 0.316 µM); MIC (Acinetobacter baumannii, isolate 1866376, 20% HS): 0.25 µg/mL (≈ 0.316 µM); MIC (Acinetobacter baumannii, isolate 1868315, 20% HS): 0.5 µg/mL (≈ 0.632 µM); MIC (Acinetobacter baumannii, isolate 1869068, 20% HS): 1 µg/mL (≈ 1.26 µM); MIC (Acinetobacter baumannii, isolate 1869084, 20% HS): 4 µg/mL (≈ 5.06 µM); MIC (Acinetobacter baumannii, isolate 1869085, 20% HS): 1 µg/mL (≈ 1.26 µM); MIC (Acinetobacter baumannii, isolate 1869086, 20% HS): 1 µg/mL (≈ 1.26 µM); MIC (Acinetobacter baumannii, isolate 1869087, 20% HS): 1 µg/mL (≈ 1.26 µM); MIC (Acinetobacter baumannii, isolate 1869088, 20% HS): 0.5 µg/mL (≈ 0.632 µM); MIC (Acinetobacter baumannii, isolate 1869089, 20% HS): 0.25 µg/mL (≈ 0.316 µM); MIC (Acinetobacter baumannii, isolate 1869090, 20% HS): 0.25 µg/mL (≈ 0.316 µM); MIC (Acinetobacter baumannii, isolate 1869091, 20% HS): 0.25 µg/mL (≈ 0.316 µM); MIC (Acinetobacter baumannii, isolate 1869093, 20% HS): 0.25 µg/mL (≈ 0.316 µM); MIC (Acinetobacter baumannii, isolate 1869173, 20% HS): 0.25 µg/mL (≈ 0.316 µM); MIC (Acinetobacter baumannii, isolate 1870044, 20% HS): 0.03 µg/mL (≈ 0.0379 µM); MIC (Acinetobacter baumannii, isolate 1870131, 20% HS): 1 µg/mL (≈ 1.26 µM); MIC (Acinetobacter baumannii, isolate 1870152, 20% HS): 0.25 µg/mL (≈ 0.316 µM); MIC (Acinetobacter baumannii, isolate 1870171, 20% HS): 0.5 µg/mL (≈ 0.632 µM); MIC (Acinetobacter baumannii, isolate 1871948, 20% HS): 1 µg/mL (≈ 1.26 µM); MIC (Acinetobacter baumannii, isolate 1872001, 20% HS): 0.25 µg/mL (≈ 0.316 µM); MIC (Acinetobacter baumannii, isolate 1872360, 20% HS): 4 µg/mL (≈ 5.06 µM); MIC (Acinetobacter baumannii, isolate 1887389, 20% HS): 0.06 µg/mL (≈ 0.0759 µM); MIC (Acinetobacter baumannii, isolate 1887397, 20% HS): 0.06 µg/mL (≈ 0.0759 µM); MIC (Acinetobacter baumannii, isolate 1887497, 20% HS): 0.06 µg/mL (≈ 0.0759 µM); MIC (Acinetobacter baumannii, isolate 1887498, 20% HS): 0.06 µg/mL (≈ 0.0759 µM); MIC (Acinetobacter baumannii, isolate 1897312, 20% HS): 0.03 µg/mL (≈ 0.0379 µM); MIC (Acinetobacter baumannii, isolate 1897314, 20% HS): 0.25 µg/mL (≈ 0.316 µM); MIC (Acinetobacter baumannii, isolate 1897317, 20% HS): 0.25 µg/mL (≈ 0.316 µM); MIC (Acinetobacter baumannii, isolate 1914727, 20% HS): 0.5 µg/mL (≈ 0.632 µM); MIC (Acinetobacter baumannii, isolate 1914733, 20% HS): 0.06 µg/mL (≈ 0.0759 µM); MIC (Acinetobacter baumannii, isolate 1930837, 20% HS): 0.06 µg/mL (≈ 0.0759 µM); MIC (Acinetobacter baumannii, isolate 1930840, 20% HS): 0.125 µg/mL (≈ 0.158 µM); MIC (Acinetobacter baumannii, mutations in adeRS): 1 to 8 µg/mL (≈ 1.26 to 10.1 µM); MIC90 (Acinetobacter baumannii, 129 clinical isolates, CAMHB + 20% HS, n = 1): 1 µg/mL; Fold MIC increase (AdeR A91V vs parental): >4 - 32; Fold MIC increase (AdeS D128E vs parental): 2; Fold MIC increase (AdeS G160C vs parental): 4; Fold MIC increase (AdeS G318S vs parental): 8; Fold MIC increase (AdeS L197F vs parental): 4; Fold MIC increase (AdeS R108S vs parental): 4; Fold MIC increase (AdeS R152K vs parental): 4; Fold MIC increase (AdeS T66S vs parental): 4; Fold MIC increase (LptF (G326_E327)del vs parental): 64 - 128 ^a; Fold MIC increase (LptF (I319_K320)N vs parental): >256; Fold MIC increase (LptF (K320)del vs parental): >256; Fold MIC increase (LptF (K320)dup vs parental): 256; Fold MIC increase (LptF (V314_L315)del vs parental): 128; Fold MIC increase (LptF A318E vs parental): 32; Fold MIC increase (LptF E58G vs parental, CAMHB + 20% HS): 8; Fold MIC increase (LptF E58K vs parental): >256; Fold MIC increase (LptF E249K vs parental): 32 - 256 ^a; Fold MIC increase (LptF I317L vs parental): 32 - 64; Fold MIC increase (LptF I317N vs parental): >256; Fold MIC increase (LptF I317S vs parental): 256; Fold MIC increase (LptF I317T vs parental): 32; Fold MIC increase (LptF I323K vs parental): 64 - 128 ^a; Fold MIC increase (LptF I323R vs parental): 4 - 256 ^a; Fold MIC increase (LptF K320E vs parental): 256; Fold MIC increase (LptF K320N vs parental): 64; Fold MIC increase (LptF K320Q vs parental): 32; Fold MIC increase (LptF K320T vs parental): 16; Fold MIC increase (LptF L62H vs parental): 64 - 256 ^a; Fold MIC increase (LptF R322C vs parental): 32 - 128 ^a; Fold MIC increase (LptF R322G vs parental): 8 - 16 ^a; Fold MIC increase (LptF R322L vs parental): 32 - 64 ^a; Fold MIC increase (LptF R322S vs parental): 16; Fold MIC increase (LptF T121K vs parental): 8; Fold MIC increase (LptF W271R vs parental): 4; Fold MIC increase (LptF W271S vs parental): 16; Fold MIC increase (LptG G40D vs parental): 8; Fold MIC increase (LptG L36Q vs parental): 32; Fold MIC increase (LpxM IS66 vs parental): 32; Fold MIC increase (LpxM K285N vs parental): 4; Fold MIC increase (LpxM L44stop vs parental): 32; Fold MIC increase (LpxM W78stop vs parental): 32; Fold MIC increase (adeS ISAba1 vs parental): 4 - 32 ^a; Fold MIC increase (deletion of AGTGTGGAGTA 66nt upstream of adeR vs parental): 8; Fold MIC increase (lpxM ISAba1 vs parental): 32 - 64 ^a
